Data published in patent publication US9718790B2, “Triazine derivative and pharmaceutical composition having an analgesic activity comprising the same” (SHIONOGI & CO., LTD., priority 2010, dated 2017).

target: human P2X3 receptor (Homo sapiens (Human), UniProt P56373); test: Evaluation of human P2X3 receptor inhibitory activity (Fluo-3 calcium fluorescence, FDSS 3000, ATP stimulation); assay type: cell-based; settings: C6BU-1 cells stably expressing human P2X3 receptor;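 further: stimulus was 50 nM ATP with fluorescence followed for 3 min, and the response per well was peak post-ATP fluorescence divided by the reading at measurement start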
Sequence (P56373 whole entry): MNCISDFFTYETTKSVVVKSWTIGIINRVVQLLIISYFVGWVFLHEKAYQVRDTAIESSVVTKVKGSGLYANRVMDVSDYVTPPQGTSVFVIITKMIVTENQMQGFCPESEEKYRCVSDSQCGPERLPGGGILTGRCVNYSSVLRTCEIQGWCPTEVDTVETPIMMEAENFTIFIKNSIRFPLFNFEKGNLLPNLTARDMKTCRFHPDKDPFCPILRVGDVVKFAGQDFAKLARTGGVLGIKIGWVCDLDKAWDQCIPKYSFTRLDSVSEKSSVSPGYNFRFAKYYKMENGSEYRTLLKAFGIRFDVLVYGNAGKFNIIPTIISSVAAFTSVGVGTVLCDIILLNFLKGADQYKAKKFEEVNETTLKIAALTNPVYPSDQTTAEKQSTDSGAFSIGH

SMILES | IC50
CC(C)Oc1ccc(/N=c2\[nH]c(=O)n(Cc3cccn(C)c3=O)c(=O)n2Cc2ccc(Cl)cc2)cc1F [Compound I-0689] | 5 nM
CCn1c(=O)[nH]/c(=N\c2ccc(Oc3cncc(C(=O)OC)c3)cc2)n(CC2CCC(C)(C)CC2)c1=O [Compound I-2204] | 28 nM
Cc1ccc(Cn2c(=O)n(C[C@H](C)C(=O)O)c(=O)[nH]/c2=N\c2ccc(OC3CCCC3)nc2)cc1 [Compound I-1226] | 122 nM
C[C@@H](Cn1c(=O)[nH]/c(=N\c2ccc3c(c2)COCO3)n(Cc2ccc(Cl)cc2)c1=O)C(=O)O [Compound I-0746] | 140 nM
CCOC(=O)CCn1c(=O)[nH]/c(=N\c2ccc(Oc3ccncc3)cc2)n(Cc2ccc(C)cc2)c1=O [Compound I-1230] | 4 nM
Cc1cc(/N=c2\[nH]c(=O)n(CC[C@H](N)C(=O)O)c(=O)n2Cc2ccc(Cl)cc2)ccc1OC(C)C [Compound I-0736, (S)-1-(4-chlorobenzyl)-3-(3-amino-3-hydroxycarbonylpropyl)-6-(3-mehyl-4-isopropoxyphenylimino)-1,3,5-triazinane-2,4-dion] | 131 nM
Cc1cc2cc(/N=c3\[nH]c(=O)n(CCCOC4CCCCO4)c(=O)n3Cc3ccc(Cl)cc3)ccc2o1 (centres unmarked) [Compound I-2025] | 5 nM
Cc1nc2ccc(/N=c3\[nH]c(=O)n(C[C@H](C)C(=O)O)c(=O)n3Cc3ccc(Cl)cc3)cc2nc1C [Compound I-1348] | 918 nM
CCOC(=O)CCn1c(=O)[nH]/c(=N\c2ccc(OC(C)C)c(COC(C)=O)c2)n(Cc2ccc(C)cc2)c1=O [Compound I-1425] | 50 nM
O=c1[nH]/c(=N\c2ccc(OCC3CC3)cc2)n(Cc2ccc(Cl)cc2)c(=O)n1CCCO [Compound I-1917] | 23 nM
CCOC(=O)OC(=O)c1ccc(Oc2ccc(/N=c3\[nH]c(=O)n(CC)c(=O)n3Cc3ccc(C)cc3)cc2)cc1 [Compound I-2068] | 16 nM
COC(=O)[C@H](C)[C@H](C)n1c(=O)[nH]/c(=N\c2ccc(CC(C)C)c(Cl)c2)n(Cc2ccc(Cl)cc2)c1=O [Compound I-1435] | 61 nM
COC(=O)[C@@H](C)Cn1c(=O)[nH]/c(=N\c2ccc3ncccc3c2)n(Cc2ccc(Cl)cc2)c1=O [Compound I-1318] | 544 nM
CCc1cc2cc(/N=c3\[nH]c(=O)n(C[C@H](C)C(=O)OC)c(=O)n3Cc3ccc(Cl)cc3)ccc2s1 [Compound I-1947] | 353 nM
Cc1oc2ccc(/N=c3\[nH]c(=O)n(CC4COC(C)(C)OC4)c(=O)n3Cc3ccc(Cl)cc3)cc2c1C [Compound I-2071] | 8 nM
CCn1c(=O)[nH]/c(=N\c2ccc(Oc3nc(C(=O)O)co3)cc2)n(Cc2ccc(Cl)cc2)c1=O [Compound I-2190] | 33 nM
Cc1ccc(Cn2c(=O)n(C)c(=O)[nH]/c2=N\c2ccc(Oc3cccc(C(=O)O)c3)cc2)cc1 [Compound I-2060] | 22 nM
COC(=O)[C@@H](C)[C@@H](C)n1c(=O)[nH]/c(=N\c2ccc(Oc3ccc(C)nc3)cc2)n(Cc2ccc(Cl)cc2)c1=O [Compound I-1376] | 15 nM
COC(=O)[C@@H](C)Cn1c(=O)[nH]/c(=N\c2ccc(OC(C)C)c(Cl)c2)n(Cc2ccc(F)cc2)c1=O [Compound I-0626] | 22 nM
Cc1cc(/N=c2\[nH]c(=O)n([C@H]3CCOC3=O)c(=O)n2Cc2ccc(Cl)cc2)ccc1OC(C)C [Compound I-0775] | 41 nM
CC(C)Oc1ccc(/N=c2\[nH]c(=O)n(C[C@H](C)C(=O)O)c(=O)n2Cc2ccc(F)cc2)cc1Cl [Compound I-0630] | 30 nM

same assay, conditions: C6BU-1 cells stably expressing human P2X3 receptor, Fluo-3 fluorescence, FDSS 3000

SMILES | IC50
C[C@@H](Cn1c(=O)[nH]/c(=N\c2ccc(C=C3CCCC3)cc2)n(Cc2ccc(Cl)cc2)c1=O)C(=O)O [Compound I-1099] | 70 nM
Cc1ccc(Cn2c(=O)n([C@@H](C)[C@@H](C)C(=O)O)c(=O)[nH]/c2=N\c2ccc(OC(C)C)cc2)cc1 [Compound I-1082] | 63 nM
CC1(C)OC[C@H](Cn2c(=O)[nH]/c(=N\c3ccc(OCC4CC4)cc3)n(Cc3ccc(Cl)cc3)c2=O)O1 [Compound I-1854] | 4 nM
CC[C@@H](C)Oc1ccc(/N=c2\[nH]c(=O)n(CCC(=O)O)c(=O)n2Cc2ccc(C)cc2)cc1Cl [Compound I-1030] | 14 nM
Cc1ccc(Cn2c(=O)n(CCC(=O)O)c(=O)[nH]/c2=N\c2ccc(OCC3CC3)c(Cl)c2)cc1 [Compound I-0968] | 107 nM
COc1ccc2cc(/N=c3\[nH]c(=O)n([C@@H](C)[C@@H](C)C(=O)O)c(=O)n3Cc3ccc(Cl)cc3)ccc2c1 [Compound I-1773] | 29 nM
COC(=O)[C@H](C)[C@H](C)n1c(=O)[nH]/c(=N\c2ccc3nc(C)[nH]c3c2)n(Cc2ccc(Cl)cc2)c1=O [Compound I-1795] | 795 nM
Cc1ccc(Cn2c(=O)n(CCC(=O)O)c(=O)[nH]/c2=N\c2ccc(OCC(C)(C)C)cc2)cc1 [Compound I-1071] | 998 nM
CCn1c(=O)[nH]/c(=N\c2ccc(Oc3ccc(OC)nc3)cc2)n(Cc2ccc(Cl)cc2)c1=O [Compound I-1847] | 6 nM
CCc1oc2ccc(/N=c3\[nH]c(=O)n(CCNC(=O)C(F)(F)F)c(=O)n3Cc3ccc(Cl)cc3)cc2c1C [Compound I-1565] | 8 nM
Cc1ccc(Cn2c(=O)n(CCC(=O)O)c(=O)[nH]/c2=N\c2ccc(OC(C)C)c(Br)c2)cc1 [Compound I-1178] | 17 nM
COC(=O)[C@@H](C)Cn1c(=O)[nH]/c(=N\c2cccc(C3CCCCC3)c2)n(Cc2ccc(C)cc2)c1=O [Compound I-1088] | 548 nM
CCc1oc2ccc(/N=c3\[nH]c(=O)n(C[C@H]4COC(C)(C)O4)c(=O)n3Cc3ccc(Cl)cc3)cc2c1C [Compound I-1604] | 8 nM
Cc1ccc(Cn2c(=O)n(CCC(=O)O)c(=O)[nH]/c2=N\c2ccc(O[C@H](C)C(F)(F)F)cc2)cc1 [Compound I-1031] | 64 nM
CCc1cc(/N=c2\[nH]c(=O)n(C[C@H](C)C(=O)OC)c(=O)n2Cc2ccc(C)cc2)ccc1OC(C)C [Compound I-0908, (S)-1-(4-methylbenzyl)-6-(3-ethyl-4-isopropoxyphenylimino)-3-(2-methoxycarbonylpropyl)-1,3,5-triazinane-2,4-dion] | 13 nM
CCc1cc2cc(/N=c3\[nH]c(=O)n(C[C@H](C)C(=O)OC)c(=O)n3Cc3ccc(Cl)cc3)ccc2s1 [Compound I-1947] | 677 nM
CCc1cc2cc(/N=c3\[nH]c(=O)n(C[C@H](C)C(=O)O)c(=O)n3Cc3ccc(Cl)cc3)ccc2o1 [Compound I-1766] | 18 nM
CC(C)Oc1ccc(/N=c2\[nH]c(=O)n(C[C@H](C)C(=O)O)c(=O)n2Cc2ccc(I)cc2)cc1 [Compound I-1092] | 69 nM
COc1ccc(COc2cc(Cn3c(=O)[nH]/c(=N\c4ccc(OC(C)C)c(F)c4)n(Cc4ccc(Cl)cc4)c3=O)on2)cc1 [Compound I-1764] | 35 nM

same assay, conditions: human P2X3 receptor, Test Example 1

SMILES | IC50
Cc1ccc(Cn2c(=O)n(C[C@H](O)CO)c(=O)[nH]/c2=N\c2ccc(Oc3ccon3)cc2)cc1 [Compound I-2510] | 10 nM
Cc1cnc(Oc2ccc(/N=c3\[nH]c(=O)n(CC(N)=O)c(=O)n3Cc3ccc(Cl)cc3)cc2)s1 [Compound I-2647] | 16 nM
CCc1cc2cc(/N=c3\[nH]c(=O)n(CC(CO)CO)c(=O)n3Cc3ccc(Cl)cc3)ccc2o1 [Compound I-2313] | 8 nM
Cc1ccc(Cn2c(=O)n(C[C@H](C)C(=O)O)c(=O)[nH]/c2=N\c2ccc(CC(C)C)cc2)cc1 [Compound I-0872] | 81 nM
CCOC(=O)Cn1c(=O)[nH]/c(=N\c2ccc(Oc3nc(C)ns3)cc2)n(Cc2ccc(Cl)cc2)c1=O [Compound I-2570] | 5 nM
CCc1ccc(Cn2c(=O)n(C[C@H](C)C(=O)OC)c(=O)[nH]/c2=N\c2ccc(OC(C)C)c(C)c2)cc1 [Compound I-0894, (S)-1-(4-ethylbenzyl)-6-(3-mehyl-4-isopropoxyphenylimino)-3-(2-methoxycarbonylpropyl)-1,3,5-triazinane-2,4-dion] | 28 nM
CCOC(=O)C1(Cn2c(=O)[nH]/c(=N\c3ccc4oc(CC)c(C)c4c3)n(Cc3ccc(Cl)cc3)c2=O)CC1 [Compound I-1538] | 17 nM
C[C@H](C(=O)O)n1c(=O)[nH]/c(=N\c2ccc(Oc3ccon3)cc2)n(Cc2ccc(Cl)cc2)c1=O [Compound I-2486] | 381 nM
COC(=O)[C@@H](C)Cn1c(=O)[nH]/c(=N\c2ccc(OCC(C)C)c(C)c2)n(Cc2ccc(Cl)cc2)c1=O [Compound I-0831] | 77 nM
CCOc1ccc(/N=c2\[nH]c(=O)n(CC(F)(F)C(=O)O)c(=O)n2Cc2ccc(C)cc2)cc1Cl [Compound I-0858] | 22 nM
Cn1c(=O)[nH]/c(=N\c2ccc(Oc3ccc(C(=O)O)cn3)cc2)n(Cc2ccc(Cl)cc2)c1=O [Compound I-2442] | 18 nM
CC1(Cn2c(=O)[nH]/c(=N\c3ccc(Oc4ccon4)cc3)n(Cc3ccc(Cl)cc3)c2=O)COC(C)(C)OC1 [Compound I-2630] | 3 nM
CC(=O)Nc1cc(Oc2ccc(/N=c3\[nH]c(=O)[nH]c(=O)n3Cc3ccc(Cl)cc3)cc2)ccn1 [Compound I-2430] | 48 nM
C[C@H](CO)n1c(=O)[nH]/c(=N\c2ccc(Oc3ccon3)cc2)n(Cc2ccc(Cl)cc2)c1=O [Compound I-2488] | 37 nM
CCn1c(=O)[nH]/c(=N\c2ccc(Oc3ccnnc3)cc2)n(Cc2ccc(Cl)cc2)c1=O [Compound I-2600] | 4 nM
Cn1c(=O)[nH]/c(=N\c2ccc(Oc3nccc(C(=O)O)n3)cc2)n(Cc2ccc(Cl)cc2)c1=O [Compound I-2405] | 62 nM
CC(CO)(CO)Cn1c(=O)[nH]/c(=N\c2ccc(Oc3cccc(F)n3)cc2)n(Cc2ccc(F)cc2)c1=O [Compound I-2526] | 8 nM
O=c1[nH]/c(=N\c2ccc(Oc3cnccn3)cc2)n(Cc2ccc(Cl)cc2)c(=O)n1CC(CO)CO [Compound I-2710] | 6 nM
CCn1c(=O)[nH]/c(=N\c2ccc3nc(/C=N\OC)sc3c2)n(Cc2ccc(Cl)cc2)c1=O [Compound I-2338] | 260 nM
CCn1c(=O)[nH]/c(=N\c2ccc(Oc3cccc(-c4nnn[nH]4)n3)cc2)n(Cc2ccc(Cl)cc2)c1=O [Compound I-2602] | 2 nM
CCn1c(=O)[nH]/c(=N\[C@H]2CC[C@H](Oc3ccnc(C(=O)O)c3)CC2)n(Cc2ccc(Cl)cc2)c1=O [Compound I-2297] | 65 nM
CCOC(=O)CCn1c(=O)[nH]/c(=N\c2ccc3nc(C)sc3c2)n(Cc2ccc(Cl)cc2)c1=O [Compound I-1518] | 2 nM
